These results are taken from US20120059005A1, “COMBINATION OF (A) A PHOSPHOINOSITIDE 3-KINASE INHIBITOR AND (B) AN ANTIDIABETIC COMPOUND FOR USE IN THE TREATMENT OF PROLIFERATIVE DISEASES” (NOVARTIS AG, priority 2009, published 2012).

A word on the T/C: it is the ratio of treated to control.

Like-named read-outs stand apart in the source and are kept apart here.

Data set [1] relates to A549 non-small cell lung tumors. Put plainly: A549 xenograft 20-day tumor growth inhibition assay. Type of data set: in vivo, nude mice. The method, then: A549 human non-small cell lung cancer (NSCLC) cells are treated with different doses of the 2-Methyl-2-[4-(3-methyl-2-oxo-8-quinolin-3-yl-2,3-dihydro-imidazo[4, 5-c]quinolin-1-yl)-phenyl]-propionitrile monotosylate salt (also known as COMPOUND A) or 5-(2,6-di-morpholin-4-yl-pyrimidin-4-yl)-4-trifluoromethyl-pyridin-2-ylamine hydrochloride salt (also known as COMPOUND C), a single dose of metformin or both agents in combination. The A549 human NSCLC cells (ATCC-CCL-185, available from American Type Culture Collection, Rockville, Md. US) display characteristics of type II alveolar epithelial cells (Lieber et al, Int, J, Cancer 17(1): 62-70 [1976]), The A549 NSCLC cells are homozygous for mutations in the tumor suppressor genes, CDKN2A and STK11 (also called LKB1), and in KRAS. (Wellcome Trust Sanger Institute, Catalogue of Somatic Mutations in Cancer, Cosmic ID No, 905949, available at website http://www.sanger.ac.uk/peri/genetics/CGP/core_line_viewer?action=sample&name=A549.)
A549 tumor cells are grown in Kaighn's modified Ham's F12 medium containing 100 units/mL penicillin G sodium, 100 μg/mL streptomycin sulfate, 25 μg/mL gentamicin, […], 2 mM glutamine, and 1 mM sodium pyruvate. The cells are cultured in tissue culture flasks in a humidified incubator at 37° C., in an atmosphere of 5% CO2 and 95% air. The cells are harvested for injection into 9-week old female nu/nu (nude) mice (Harlan Laboratories, Indianapolis, Ind.) by detaching the monolayers with 2X trypsin and resuspending at 5×10^7cells/mL in cold phosphate-buffered saline containing 50% Matrigel.
(§1) 0.2 mL of A549 cell suspension (1×10^7 cells) is injected subcutaneously in the right flank of 9-week old female flu/flu (nude) mice (Harlan Laboratories, Indianapolis, Ind.) having a body weight (BW) range of 19.9-27.3 g on Day 1 of the study, Tumors are callipered in two dimensions to monitor their growth as their mean volume approached 150-220 mm^3, Twenty-two days after implantation, the mice are sorted into 11 groups of eight or nine mice having individual tumor sizes of 108-221 mm^3. Tumor volume in mm^3 is determined using the formula [(width)^2×(length)][…], where width width of the tumor in mm and length=length of the tumor in mm. Tumor weight can be estimated with the assumption that 1 mg is equivalent to 1 mm^3 of tumor volume.
(§2) The 11 groups of nude mice are treated as follows. One group of nine mice serves as Controls (C or Control) for all analyses and is administered intraperitoneally (i,p,) 50 mM sodium acetate at pH 4 (Vehicle 1) and then administered by oral gavage (p.o.) a composition comprising 10% N-methylpyrrolidone: 90% polyethylene glycol 300 (PEG300) (Vehicle 2). […] Metformin is dissolved in 50 mM sodium acetate at pH 4 for dosing,
(§3) Compound A and Compound C are stored at −20° C. protected from light. Stock solutions (10X) in 100% N-methylpyrrolidone (NMP) are prepared every five days, aliquotted, and stored in the dark at room temperature. On each treatment day, stock solution aliquots are diluted with polyethylene glycol (PEG300) to provide the formulated drug (Compound A or Compound C) in 10% NMP: 90% PEG300. Dosing solutions are protected from light, and the formulated drug is administered within 1 hour after preparation.
(§4) For combination therapies, Compound A or Compound C are administered by oral gavage (p.o.) within 30 minutes after the intraperitoneal (i.p.) administration of metformin , except on Day 20 when Compound A or Compound C is given immediately after metformin.
(§5) Paclitaxel (Natural Pharmaceuticals, Inc., Beverly, Mass., USA) is administered by bolus tail-vein injections (i v) once daily on alternate days for five doses. Paclitaxel is dissolved in 50% ethanol and 50% Cremophor® EL to prepare a 10X stock solution stored at room temperature. On each day of dosing, an aliquot of the paclitaxel stock solution is diluted with 5% dextrose in water to yield a dosing solution containing 5% ethanol and 5% Cremophor®EL.

How the values of data set [2] were obtained: as §1, §2, §3, §4, §5
In all groups, the dosing volume of 10 mL/kg (0.2 mL/ 20 g mouse) is scaled to the weight of each animal as determined on the day of dosing, except on weekends when the previous BW is carried forward.

Setting [3] is: Compound A 41.1 mg/kg p.o., 1x daily, Day 20.
Setting [4] is: Compound A 68.5 mg/kg p.o., 1x daily, Day 20.
The mark [5] stands for this setting: Paclitaxel 30 mg/kg i.v., 1x on alternate days for 5 doses, Day 20.
Where [6] appears, read: Compound C 32.7 mg/kg p.o., 1x daily, Day 20.
[7] abbreviates: Compound C 54.4 mg/kg p.o., 1x daily, Day 20.
Setting [8] is: Metformin 192.3 mg/kg i.p., 1x daily, Day 20.

For the molecule `Cn1c(=O)n(-c2ccc(C(C)(C)C#N)cc2)c2c3cc(-c4cnc5ccccc5c4)ccc3ncc21` [Compound A, 2-Methyl-2-[4-(3-methyl-2-oxo-8-quinolin-3-yl-2,3-dihydro-imidazo[4,5-c]quinolin-1-yl)-phenyl]-propionitrile], in data set [1] (setting [3]), the “Mean Tumor Vol. Change” value is on record as 58 mm^3, the Regression entry is given as “None” and the T/C is recorded as 18% (ns). For the same molecule, in data set [1] (setting [4]), the “Mean Tumor Vol. Change” value is −51 mm^3, the Regression is 3 Partial and the T/T0 is −31% (T/T0,. The Dead/Total in data set [2] (female, nu/nu (nude), mouse, in vivo, po, 41.1 mg/kg) is listed as 0/8. Also, the Dead/Total in data set [2] (female, nu/nu (nude), mouse, in vivo, po, 68.5 mg/kg) is 0/9. Besides, the “Mean Body Weight Change” value in data set [2] (mouse, in vivo, po, 68.5 mg/kg) is −0.8%, Day 4.
Take `CC(=O)O[C@H]1C(=O)[C@@]2(C)[C@H]([C@H](OC(=O)c3ccccc3)[C@]3(O)C[C@H](OC(=O)[C@H](O)[C@@H](NC(=O)c4ccccc4)c4ccccc4)C(C)=C1C3(C)C)[C@]1(OC(C)=O)CO[C@@H]1C[C@@H]2O` [Paclitaxel, reference compound]: in data set [1] (setting [5]), the “Mean Tumor Vol. Change” value came to 9 mm^3, the Regression entry is on record as “None” and the T/C is reported as 3%. The Dead/Total in data set [2] (Paclitaxel 30 mg/kg i.v., 1x on alternate days for 5 doses) is 0/8.
Consider `Nc1cc(C(F)(F)F)c(-c2cc(N3CCOCC3)nc(N3CCOCC3)n2)cn1` [Compound C, 5-(2,6-di-morpholin-4-yl-pyrimidin-4-yl)-4-trifluoromethyl-pyridin-2-ylamine], for which, in data set [1] (setting [6]), the “Mean Tumor Vol. Change” value came out at 63 mm^3, the Regression result was “None” and the T/C was 20% (ns). In data set [1] (setting [7]), the “Mean Tumor Vol. Change” value was −80 mm^3, the Regression entry is “None” and the T/T0 is recorded as −48% (T/T0,.
As to `CN(C)C(=N)N=C(N)N` [Metformin, dimethyldiguanide, reference compound], in data set [1] (setting [8]), the “Mean Tumor Vol. Change” value was determined as 221 mm^3 and the Regression result was “None”. Further, in data set [1] (metformin monotherapy at 192.3 mg/kg), the “activity in the 20-day tumor growth inhibition assay” value is reported as “did not appear active”. Also, the T/C in data set [1] (mouse, in vivo) was 69% (ns). Besides, the Dead/Total in data set [2] (female, nu/nu (nude), mouse, in vivo) is given as 1/9.
